The results in this text go back to ChEMBL document CHEMBL1201862, “PubChem BioAssay data set” (2004).

Structures are written as SMILES.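 All cell lines were grown in 96-well plates and treated with compound for 48 hours. GI50 marks 50% less growth.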 Activity calls are given as the source filed them. Rule as the data show it: active = GI50 up to about 1.1 µM and inactive = higher.

Assay in all cases: DTP human tumour cell line panel, 48 h
Assay [1] has as its system NCI-H522.
The subject of assay [2] is COLO 205.
The test system of assay [3] is SK-MEL-5.
The test system of assay [4] is SNB-75.
Assay [5] relates to Malme-3M.
Assay [6] deals with SK-MEL-2.
The test system of assay [7] is SR.
Assay [8] has as its system UO-31.
In assay [9] the test system is U-251.
Assay [10] has as its system HT-29.
Assay [11] concerns RPMI-8226.
The subject of assay [12] is A498.
The subject of assay [13] is HL-60.
The subject of assay [14] is NCI/ADR-RES.
The subject of assay [15] is SF-539.
Assay [16] concerns SN12C.
Assay [17] relates to HCC 2998.
Assay [18] has as its system UACC-62.
The subject of assay [19] is A549.
Assay [20] deals with NCI-H460.

In the case of `Cc1cc(C(=O)CSC(=S)SC(C)(C)C)ccc1Cl`, the GI50 is 14.7 µM (inactive) in [1]; 18.4 µM (inactive) in assay [2]; 17.8 µM (inactive) in assay [3]; 18.2 µM (inactive) in assay [4]; 16.8 µM (inactive) in [5]; 19.9 µM (inactive) in [6]. In addition, the GI50 was 16.9 µM (inactive) in assay [7]; 18.1 µM (inactive) in assay [8]; 15.1 µM (inactive) in [9]; 25.1 µM (inactive) in assay [10]; 21.9 µM (inactive) in [11]; 16.3 µM (inactive) in assay [12]. Moreover, the GI50 in [13] is 18.4 µM (inactive); in [14], 19.8 µM (inactive); in [15], 18.7 µM (inactive); in assay [16], 18.2 µM (inactive); in assay [17], 16.7 µM (inactive); in assay [18], 16.1 µM (inactive). The GI50 in assay [19] was 20.9 µM (inactive); in assay [20], 14.7 µM (inactive).

Regarding `CCOC(=O)c1cccc(NC(=O)CBr)c1`, the GI50 in [1] is 0.0164 µM (active); in assay [2], 1.72 µM (inactive); in assay [3], 1.41 µM (inactive); in assay [4], 1.74 µM (inactive); in assay [5] it was 1.91 µM (inactive); in [6], 1.56 µM (inactive). Further, the GI50 was 0.206 µM (active) in assay [7]; 0.776 µM (active) in assay [8]; 0.581 µM (active) in assay [9]; 1.69 µM (inactive) in [10]; 1.07 µM (active) in assay [11]; 3.43 µM (inactive) in assay [12]. Further, the GI50 was 1.74 µM (inactive) in assay [13]; 2.04 µM (inactive) in [14]; 0.984 µM (active) in [15]; 0.458 µM (active) in assay [16]; 2.3 µM (inactive) in [17]; 1.42 µM (inactive) in assay [18]. Further, the figures for the GI50 in [19] and in assay [20] were 2.09 µM (inactive) and 0.927 µM (active), respectively.

In the case of `COc1cc(/C=C(\C)[N+](=O)[O-])cc(OC)c1`, the GI50 was 1.87 µM (inactive) in assay [1]; 8.05 µM (inactive) in assay [2]; 16 µM (inactive) in [3]; 16.7 µM (inactive) in assay [4]; 14.8 µM (inactive) in assay [5]; 17.2 µM (inactive) in [6]. Also, the GI50 in [7] is 3.01 µM (inactive); in [8] it was 15.6 µM (inactive); in assay [9] it was 17.7 µM (inactive); in assay [10] it was 20 µM (inactive); in assay [11], 3.12 µM (inactive); in assay [12], 8.05 µM (inactive). Further, the GI50 was 2.04 µM (inactive) in assay [13]; 20.2 µM (inactive) in assay [14]; 9.18 µM (inactive) in assay [15]; 17.1 µM (inactive) in [16]; 25.1 µM (inactive) in assay [17]; 14.6 µM (inactive) in assay [18]. Further, the GI50 is 28.3 µM (inactive) in [19] and 20.2 µM (inactive) in assay [20].

For the compound `C[C@@H](CN1CC(=O)NC(=O)C1)N1CC(=O)NC(=O)C1` [DEXRAZOXANE], the GI50 was 67.8 µM (inactive) in assay [1]; 12.5 µM (inactive) in assay [2]; 174 µM (inactive) in [3]; 318 µM (inactive) in assay [4]; 165 µM (inactive) in assay [5]; 246 µM (inactive) in [6]. Also, the GI50 in assay [7] is 93.1 µM (inactive); in assay [8], 354 µM (inactive); in assay [9], 228 µM (inactive); in assay [10], 110 µM (inactive); in assay [11] it was 327 µM (inactive); in assay [12], 221 µM (inactive). Further, the GI50 in assay [13] is 51.1 µM (inactive); in assay [14] it was 282 µM (inactive); in [15], 332 µM (inactive); in assay [16] it was 232 µM (inactive); in [17] it was 473 µM (inactive); in assay [18] it was 147 µM (inactive). Besides, the GI50 is 37.2 µM (inactive) in assay [19] and 6.67 µM (inactive) in assay [20].

By GI50 is commonly meant the concentration at which growth is held to half of that of the control.
